According to the supplement of paper PMC4862054:

Each molecule was assayed on HDQ-P1 (assay: normalised viability (% of control), CellTiter-Blue; higher = more viable cells (about 100 = DMSO control)). Conditions: incubation time: 72 h.
Protocol: (§1)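 DSRT, CellTiter-Blue viability, 72 h incubation. Signal is normalised to DMSO and benzethonium chloride controls. Value is the normalised response at dose 9.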

**Q.** How did the normalised viability turn out when `C=C(c1ccc(C(=O)O)cc1)c1cc2c(cc1C)C(C)(C)CCC2(C)C` [Bexarotene] (10000 nM) was run?
**A.** Its normalised viability is 103%.

Each molecule was assayed on CAL-85-1 in the same assay as above. Conditions: incubation time: 72 h.
Protocol: as §1

**Q.** Which normalised viability does the source give for `O=C1CCC(N2C(=O)c3ccccc3C2=O)C(=O)N1` (stereo unspecified) [Thalidomide] (10000 nM) here?
**A.** Its normalised viability is 104%.

**Q.** How did the normalised viability turn out when `Oc1nc(-c2ccc(C(F)(F)F)cc2)nc2c1CSCC2` [XAV-939] (10000 nM) was run?
**A.** The normalised viability was 82.3%.

**Q.** `O=P1(NCCCl)OCCCN1CCCl` (stereo unspecified) [Ifosfamide] (10000 nM) was tested. Which normalised viability did it give?
**A.** The normalised viability was 88.4%.

**Q.** `Clc1ccc(Nc2nnc(Cc3ccncc3)c3ccccc23)cc1` [Vatalanib] (10000 nM) was tested. Which normalised viability did it give?
**A.** Its normalised viability is 83.2%.

**Q.** With `CCC1(c2ccc(N)cc2)CCC(=O)NC1=O` (stereo unspecified) [Aminoglutethimide] (10000 nM) as the molecule, how does the normalised viability read?
**A.** The normalised viability was 106%.

**Q.** How did the normalised viability turn out when `Cn1c(CCCC(=O)O)nc2cc(N(CCCl)CCCl)ccc21` [Bendamustine] (10000 nM) was run?
**A.** Its normalised viability is 92.9%.

**Q.** With `CN[C@@H]1C[C@H]2O[C@@](C)([C@@H]1OC)n1c3ccccc3c3c4c(c5c6ccccc6n2c5c31)C(=O)N[C@H]4O` [UCN-01] (10000 nM) as the molecule, how does the normalised viability read?
**A.** Its normalised viability is 1.96%.

**Q.** How did the normalised viability turn out when `C#Cc1cccc(Nc2ncnc3cc(OCCOC)c(OCCOC)cc23)c1` [Erlotinib] (10000 nM) was run?
**A.** The normalised viability was 47.7%.

**Q.** With `Cn1c(Nc2ccc(C(F)(F)F)cc2)nc2cc(Oc3ccnc(-c4ncc(C(F)(F)F)[nH]4)c3)ccc21` [RAF265] (1000 nM) as the molecule, how does the normalised viability read?
**A.** The normalised viability was 47.2%.

**Q.** With `C=C(c1ccc(C(=O)O)cc1)c1cc2c(cc1C)C(C)(C)CCC2(C)C` [Bexarotene] (10000 nM) as the molecule, how does the normalised viability read?
**A.** Its normalised viability is 95.1%.

What follows are molecules tested on CAL-51 in the same assay as above. Conditions: incubation time: 72 h.
Protocol: as §1

**Q.** How did the normalised viability turn out when `O=C1CCC(N2C(=O)c3ccccc3C2=O)C(=O)N1` (stereo unspecified) [Thalidomide] (10000 nM) was run?
**A.** Its normalised viability is 90.6%.

**Q.** How did the normalised viability turn out when `Oc1nc(-c2ccc(C(F)(F)F)cc2)nc2c1CSCC2` [XAV-939] (10000 nM) was run?
**A.** The normalised viability was 89.2%.

**Q.** With `O=P1(NCCCl)OCCCN1CCCl` (stereo unspecified) [Ifosfamide] (10000 nM) as the molecule, how does the normalised viability read?
**A.** Its normalised viability is 107%.

**Q.** How did the normalised viability turn out when `Clc1ccc(Nc2nnc(Cc3ccncc3)c3ccccc23)cc1` [Vatalanib] (10000 nM) was run?
**A.** Its normalised viability is 99.4%.

**Q.** How did the normalised viability turn out when `CCC1(c2ccc(N)cc2)CCC(=O)NC1=O` (stereo unspecified) [Aminoglutethimide] (10000 nM) was run?
**A.** The normalised viability was 85.2%.

**Q.** With `Cn1c(CCCC(=O)O)nc2cc(N(CCCl)CCCl)ccc21` [Bendamustine] (10000 nM) as the molecule, how does the normalised viability read?
**A.** Its normalised viability is 99%.

**Q.** How did the normalised viability turn out when `CN[C@@H]1C[C@H]2O[C@@](C)([C@@H]1OC)n1c3ccccc3c3c4c(c5c6ccccc6n2c5c31)C(=O)N[C@H]4O` [UCN-01] (10000 nM) was run?
**A.** Its normalised viability is 5.97%.

**Q.** With `C#Cc1cccc(Nc2ncnc3cc(OCCOC)c(OCCOC)cc23)c1` [Erlotinib] (10000 nM) as the molecule, how does the normalised viability read?
**A.** The normalised viability was 50.9%.

**Q.** `Cn1c(Nc2ccc(C(F)(F)F)cc2)nc2cc(Oc3ccnc(-c4ncc(C(F)(F)F)[nH]4)c3)ccc21` [RAF265] (1000 nM) was tested. Which normalised viability did it give?
**A.** Its normalised viability is 48%.

**Q.** With `C=C(c1ccc(C(=O)O)cc1)c1cc2c(cc1C)C(C)(C)CCC2(C)C` [Bexarotene] (10000 nM) as the molecule, how does the normalised viability read?
**A.** Its normalised viability is 90.2%.

The molecules below were run on DU-4475 in the same assay as above. Conditions: incubation time: 72 h.
Protocol: as §1

**Q.** For `O=C1CCC(N2C(=O)c3ccccc3C2=O)C(=O)N1` (stereo unspecified) [Thalidomide] (10000 nM), which normalised viability is on record?
**A.** Its normalised viability is 97.5%.

**Q.** For `Oc1nc(-c2ccc(C(F)(F)F)cc2)nc2c1CSCC2` [XAV-939] (10000 nM), which normalised viability is on record?
**A.** Its normalised viability is 100%.

**Q.** For `O=P1(NCCCl)OCCCN1CCCl` (stereo unspecified) [Ifosfamide] (10000 nM), which normalised viability is on record?
**A.** The normalised viability was 85.1%.

**Q.** `Clc1ccc(Nc2nnc(Cc3ccncc3)c3ccccc23)cc1` [Vatalanib] (10000 nM) was tested. Which normalised viability did it give?
**A.** Its normalised viability is 102%.

**Q.** With `CCC1(c2ccc(N)cc2)CCC(=O)NC1=O` (stereo unspecified) [Aminoglutethimide] (10000 nM) as the molecule, how does the normalised viability read?
**A.** Its normalised viability is 97.9%.

**Q.** For `Cn1c(CCCC(=O)O)nc2cc(N(CCCl)CCCl)ccc21` [Bendamustine] (10000 nM), which normalised viability is on record?
**A.** Its normalised viability is 78.6%.

**Q.** With `CN[C@@H]1C[C@H]2O[C@@](C)([C@@H]1OC)n1c3ccccc3c3c4c(c5c6ccccc6n2c5c31)C(=O)N[C@H]4O` [UCN-01] (10000 nM) as the molecule, how does the normalised viability read?
**A.** Its normalised viability is 2.14%.

**Q.** `C#Cc1cccc(Nc2ncnc3cc(OCCOC)c(OCCOC)cc23)c1` [Erlotinib] (10000 nM) was tested. Which normalised viability did it give?
**A.** The normalised viability was 84.5%.

**Q.** How did the normalised viability turn out when `Cn1c(Nc2ccc(C(F)(F)F)cc2)nc2cc(Oc3ccnc(-c4ncc(C(F)(F)F)[nH]4)c3)ccc21` [RAF265] (1000 nM) was run?
**A.** Its normalised viability is 42.3%.

**Q.** With `C=C(c1ccc(C(=O)O)cc1)c1cc2c(cc1C)C(C)(C)CCC2(C)C` [Bexarotene] (10000 nM) as the molecule, how does the normalised viability read?
**A.** The normalised viability was 116%.

What follows are molecules tested on CAL-148 in the same assay as above. Conditions: incubation time: 72 h.
Protocol: as §1

**Q.** How did the normalised viability turn out when `O=C1CCC(N2C(=O)c3ccccc3C2=O)C(=O)N1` (stereo unspecified) [Thalidomide] (10000 nM) was run?
**A.** Its normalised viability is 106%.

**Q.** With `Oc1nc(-c2ccc(C(F)(F)F)cc2)nc2c1CSCC2` [XAV-939] (10000 nM) as the molecule, how does the normalised viability read?
**A.** Its normalised viability is 76.9%.

**Q.** How did the normalised viability turn out when `O=P1(NCCCl)OCCCN1CCCl` (stereo unspecified) [Ifosfamide] (10000 nM) was run?
**A.** The normalised viability was 101%.

**Q.** How did the normalised viability turn out when `Clc1ccc(Nc2nnc(Cc3ccncc3)c3ccccc23)cc1` [Vatalanib] (10000 nM) was run?
**A.** The normalised viability was 84.5%.

**Q.** With `CCC1(c2ccc(N)cc2)CCC(=O)NC1=O` (stereo unspecified) [Aminoglutethimide] (10000 nM) as the molecule, how does the normalised viability read?
**A.** Its normalised viability is 112%.

**Q.** With `Cn1c(CCCC(=O)O)nc2cc(N(CCCl)CCCl)ccc21` [Bendamustine] (10000 nM) as the molecule, how does the normalised viability read?
**A.** The normalised viability was 92.4%.

**Q.** How did the normalised viability turn out when `CN[C@@H]1C[C@H]2O[C@@](C)([C@@H]1OC)n1c3ccccc3c3c4c(c5c6ccccc6n2c5c31)C(=O)N[C@H]4O` [UCN-01] (10000 nM) was run?
**A.** The normalised viability was 3.64%.

**Q.** With `C#Cc1cccc(Nc2ncnc3cc(OCCOC)c(OCCOC)cc23)c1` [Erlotinib] (10000 nM) as the molecule, how does the normalised viability read?
**A.** The normalised viability was 24.7%.

**Q.** How did the normalised viability turn out when `Cn1c(Nc2ccc(C(F)(F)F)cc2)nc2cc(Oc3ccnc(-c4ncc(C(F)(F)F)[nH]4)c3)ccc21` [RAF265] (1000 nM) was run?
**A.** Its normalised viability is 64.1%.

**Q.** `C=C(c1ccc(C(=O)O)cc1)c1cc2c(cc1C)C(C)(C)CCC2(C)C` [Bexarotene] (10000 nM) was tested. Which normalised viability did it give?
**A.** The normalised viability was 79.8%.
